Structures can show the parent of a compound that is named as a salt.
What was measured:
mice [1] = assay: oxaliplatin-induced neuropathy, von Frey test; assay type: in vivo; details: for pain threshold after single administration, early phase: 3 h after OXPT; for pain threshold after single administration, late phase: 7 days after OXPT
Method: The neuropathy manifests as a decrease in the pain threshold and can be observed in hours or in days after oxaliplatin administration, which is called the early or late phase of neuropathic pain, respectively. We tested the influence of compound 12 on tactile allodynia using the von Frey method 3 h and 7 days after the induction of neuropathy.[12]
Neuropathy was induced by the administration of a single dose (10 mg/kg) of oxaliplatin (OXPT) dissolved in a 5% glucose solution (Polfa Kutno, Poland). To assess the sensitivity to mechanical stimuli, the von Frey test was carried out using the electronic von Frey unit (Bioseb, France). The apparatus was supplied with a single flexible filament, which was used to apply increasing force (from 0 to 10 g) against the plantar surface of the hind paw of the mouse. […] The measurement was done before the OXPT administration and 3 h and 7 days afterward. The compounds were administrated to the animals with tactile allodynia observed as a statistically significant decrease in pain threshold. On the day of the experiment, each mouse was placed in an observation chamber with a wire mesh bottom and was allowed to habituate for 1 h. After the habituation period, the mouse pain threshold was tested three times alternately with at least 30 s gap between each measurement. The mean of these three consecutive measurements was taken as the baseline value. The mice with tactile allodynia were i.p. pretreated with the tested compound, and 30 min later, the animals were tested again according to the same procedure.[92]

[2] = biological target: T1, human histamine H4 receptor (hH4R) (Homo sapiens, UniProt Q9H3N8); assay: hH4R radioligand binding ([3H]UR-PI294); details: read-out: hH4R (Ki [nM] x̅ [CI 95%]); HEK293T cells; n = 3, triplicate
T1 construct: SP (signal peptide) (N); FLAG (N); expressed in transfected cells
T1 sequence (Q9H3N8 whole entry): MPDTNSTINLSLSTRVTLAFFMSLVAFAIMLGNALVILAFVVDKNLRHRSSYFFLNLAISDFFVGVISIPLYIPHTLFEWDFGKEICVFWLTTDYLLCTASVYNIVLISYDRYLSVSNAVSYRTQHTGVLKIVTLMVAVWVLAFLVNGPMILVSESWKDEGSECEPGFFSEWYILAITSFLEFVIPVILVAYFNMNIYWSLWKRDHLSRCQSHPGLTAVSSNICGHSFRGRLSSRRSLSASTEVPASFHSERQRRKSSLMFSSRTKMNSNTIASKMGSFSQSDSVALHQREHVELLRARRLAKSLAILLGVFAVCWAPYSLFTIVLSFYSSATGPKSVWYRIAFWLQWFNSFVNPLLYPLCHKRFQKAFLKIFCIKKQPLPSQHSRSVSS
Method: (§1) To check the selectivity profile of our lead structures, radioligand binding studies at other histamine receptor subtypes were carried out. […] Obtained results clearly indicate the high selectivity of the tested derivatives toward human H3R (Table 3).
(§2) Compounds (as oxalate salts) were tested in H3R in vitro binding studies using the methods described previously.[21]−[23] […] Radioligand binding experiments at the H1R, H2R, and H4R were performed as previously described in Rosier et al.[65] and Bartole et al.[66] […] Data represent mean values ± CI from three independent experiments, each performed in triplicate. The normalized competition binding curves were then fitted with a four-parameter logistic fit yielding IC50 values using the Prism 8.4.3 software (GraphPad, San Diego, CA). The Ki values were estimated from the Cheng–Prusoff equation.[69]

[3] = biological target: T2, human recombinant histamine H3R (Homo sapiens, UniProt Q9Y5N1); assay: hH3R radioligand binding ([3H]Nα-methylhistamine depletion assay); details: read-out: hH3R Ki [nM] x̄ [CI 95%]; mean [CI 95%]; HEK-293 cells
T2 construct: expressed in transfected cells
T2 sequence (Q9Y5N1 whole entry): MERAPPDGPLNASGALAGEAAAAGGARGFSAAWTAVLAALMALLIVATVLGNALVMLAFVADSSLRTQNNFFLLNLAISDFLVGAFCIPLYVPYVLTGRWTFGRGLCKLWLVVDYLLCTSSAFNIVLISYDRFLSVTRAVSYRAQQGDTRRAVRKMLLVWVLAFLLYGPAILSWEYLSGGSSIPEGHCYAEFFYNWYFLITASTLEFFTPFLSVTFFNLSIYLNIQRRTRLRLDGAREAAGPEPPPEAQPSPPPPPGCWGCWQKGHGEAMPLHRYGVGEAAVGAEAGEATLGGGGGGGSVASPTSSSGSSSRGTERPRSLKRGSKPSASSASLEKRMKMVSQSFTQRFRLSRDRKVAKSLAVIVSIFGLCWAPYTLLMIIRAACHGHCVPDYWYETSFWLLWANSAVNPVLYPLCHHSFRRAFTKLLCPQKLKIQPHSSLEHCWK

mice [4] = assay: capsaicin-induced nociception; assay type: in vivo
Method: The procedure used was similar to that described previously.[88],[89] The pain reaction was induced by the injection of 20 μL of capsaicin solution (1.6 μg/paw made in PBS) under the skin of the dorsal surface of the mice right hindpaw. The animals were observed individually in an observation chamber for 5 min following capsaicin injection. The amount of time spent licking the injected paw was recorded by means of the stopwatch and was considered as indicative of pain. The animals were pretreated with the vehicle (10 mL/kg, negative control) and investigated compound (10, 15, and 30 mg/kg).

[5] = parallel artificial membrane permeability assay (PAMPA); assay type: in vitro ADME; details: 100 μM in PBS pH 7.4, RT, read-out: Pe (permeability coefficient)
sigma-2 receptor (σ2R) = biological target: T3, sigma-2 receptor (σ2R) (Rattus norvegicus, UniProt Q5U3Y7); assay: σ2R radioligand binding ([3H]DTG); details: read-out: σ2R Ki [nM] x̄ [CI 95%]; mean [CI 95%]
T3 construct: The thawed membrane preparation of rat liver was incubated; from tissue; host or cells: Sprague-Dawley rat liver membranes
T3 sequence (Q5U3Y7 1-176): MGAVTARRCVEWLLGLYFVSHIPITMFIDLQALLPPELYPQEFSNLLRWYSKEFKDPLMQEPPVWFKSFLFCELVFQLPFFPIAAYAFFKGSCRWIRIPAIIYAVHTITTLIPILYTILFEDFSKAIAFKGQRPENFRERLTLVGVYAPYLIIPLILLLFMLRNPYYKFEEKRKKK

[6] = biological target: T4, human histamine H1 receptor (hH1R) (Homo sapiens, UniProt P35367); assay: hH1R radioligand binding ([3H]mepyramine); details: read-out: hH1R (Ki [nM] x̅ [CI 95%]); HEK293T cells; n = 3, triplicate
T4 construct: SP (signal peptide) (N); FLAG (N); expressed in transfected cells
T4 sequence (P35367 whole entry): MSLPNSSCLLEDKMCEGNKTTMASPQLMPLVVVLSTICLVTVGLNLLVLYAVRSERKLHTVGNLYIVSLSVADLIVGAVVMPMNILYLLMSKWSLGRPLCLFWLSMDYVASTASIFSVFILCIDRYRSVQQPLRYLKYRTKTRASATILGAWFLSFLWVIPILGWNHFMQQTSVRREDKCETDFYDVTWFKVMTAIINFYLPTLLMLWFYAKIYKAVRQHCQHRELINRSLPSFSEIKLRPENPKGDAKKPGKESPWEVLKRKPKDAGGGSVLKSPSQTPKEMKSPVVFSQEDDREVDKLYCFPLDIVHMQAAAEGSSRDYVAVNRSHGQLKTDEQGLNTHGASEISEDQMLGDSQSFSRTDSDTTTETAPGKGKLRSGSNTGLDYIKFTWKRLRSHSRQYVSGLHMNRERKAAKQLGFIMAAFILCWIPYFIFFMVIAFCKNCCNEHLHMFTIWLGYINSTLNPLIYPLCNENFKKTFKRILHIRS
Method: as §1, §2

In the case of N#Cc1ccc(-c2ccc(OCCCN3CCC(c4ccncc4)CC3)cc2)cc1 [Compound 12, 4′-(3-(4-(Pyridin-4-yl)piperidin-1-yl)propoxy)-[1,1′-biphenyl]-4-carbonitrile Oxalate], the “pain threshold after single administration, early phase” value (“pain threshold … early phase” for short) (mice [1]; 5 mg/kg i.p.) is reported as 88.6 % of the baseline, the “pain threshold … early phase” value (mice [1]; 10 mg/kg i.p.) is reported as 115.0 % of the baseline and the “pain threshold after single administration, late phase” value (mice [1]; 10 mg/kg i.p.) is reported as 99.8 % of the baseline. The “pain threshold … early phase” value (mice [1]; 15 mg/kg i.p.) was 124.3 % of the baseline, the “pain threshold after single administration, late phase” value (mice [1]; 15 mg/kg i.p.) was 123.7 % of the baseline and the Ki [2] was over 10000 nM. The Ki [3] was 7.7 nM, the “effect on nociceptive response in capsaicin test” value (mice [4]; 10, 15 and 30 mg/kg) was “significantly decreased the paw licking or biting behavior” and the ED50 (mice [4]; Mus musculus, 5 min, 5 min after intraplantar capsaicin, read-out: ED50, capsaicin test) was 10.3 mg/kg. For the same compound, the Papp at 5 h, 100 µM [5] was 12 ×10⁻⁶ cm/s, the Ki (sigma-2 receptor (σ2R)) was 10 nM and the Ki [6] was 653 nM.
